This passage reports TGI results from PubChem BioAssay (NCI).

Some test systems named below: EKVX NSCLC; SF-295 CNS; CCRF-CEM leukemia; OVCAR-3 ovarian; PC-3 prostate; HCT-116 colon; KM12 colon; HCT-15 colon; SR leukemia; U251 CNS.
Common to all, as to experiment: DTP human tumour cell line panel, 48 h

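Five concentrations, 48 hours, 96-well plates. TGI is the concentration that stops growth completely.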

Take `O=[N+]([O-])c1ccc2ncccc2c1CCc1c([N+](=O)[O-])ccc2ncccc12`: the TGI with EKVX NSCLC, in the assay with SF-295 CNS, in the assay on CCRF-CEM leukemia, with OVCAR-3 ovarian, in the assay with PC-3 prostate and in the assay with HCT-116 colon was more than 100 µM each time. Moreover, the TGI in the assay on KM12 colon, in the assay on HCT-15 colon, in the assay with SR leukemia and in the assay on U251 CNS was more than 100 µM throughout.

Consider `Cc1nc2c(=O)[nH]c3ccc(Cl)cc3c2o1`, for which the total growth inhibition concentration (TGI) in the assay on EKVX NSCLC, with SF-295 CNS, in the assay on CCRF-CEM leukemia, with OVCAR-3 ovarian, with PC-3 prostate and with HCT-116 colon was more than 100 µM throughout. Besides, the TGI in the assay with KM12 colon, with HCT-15 colon, in the assay on SR leukemia and with U251 CNS was more than 100 µM throughout.

In the case of `C=CCN1CCC2(CC1)NC(=O)c1ccccc1O2`, the TGI with EKVX NSCLC, in the assay on SF-295 CNS, in the assay on CCRF-CEM leukemia, in the assay on OVCAR-3 ovarian, in the assay with PC-3 prostate and in the assay with HCT-116 colon was more than 100 µM each time. The concentration for total growth inhibition (TGI) in the assay with KM12 colon, with HCT-15 colon, in the assay on SR leukemia and in the assay with U251 CNS was more than 100 µM each time.

`COc1cc(C=O)cc(C=Nc2ccc(S(N)(=O)=O)cc2)c1O`: the TGI in the assay on EKVX NSCLC was more than 100 µM; with SF-295 CNS, 23.2 µM; with CCRF-CEM leukemia, 33.8 µM; in the assay on OVCAR-3 ovarian it was more than 100 µM; with PC-3 prostate, 21.3 µM; in the assay on HCT-116 colon, 94.7 µM. In addition, the total growth inhibition concentration (TGI) was more than 100 µM in the assay on KM12 colon, more than 100 µM in the assay on HCT-15 colon, 42.1 µM in the assay with SR leukemia and more than 100 µM in the assay with U251 CNS.

For the compound `COC(=O)C(Cc1nc2ccccc2[nH]c1=O)C(=O)C(=O)Nc1cc(C(F)(F)F)ccc1Cl` (stereo not given), the TGI in the assay with EKVX NSCLC is 39 µM; in the assay on SF-295 CNS it was 71.2 µM; with CCRF-CEM leukemia, 48.2 µM; in the assay with OVCAR-3 ovarian, 25.4 µM; in the assay on PC-3 prostate, 34.4 µM; with HCT-116 colon it was 32.1 µM. Further, the TGI is 28.3 µM with KM12 colon, 26.7 µM in the assay on HCT-15 colon, more than 100 µM with SR leukemia and 66.6 µM with U251 CNS.

As for `COCCNC1CCC2(SCCS2)c2[nH]c3ccccc3c21` (stereo not given), the TGI in the assay with EKVX NSCLC was more than 100 µM; in the assay on SF-295 CNS it was more than 100 µM; in the assay with CCRF-CEM leukemia it was 88.3 µM; with OVCAR-3 ovarian, 82.1 µM; in the assay on PC-3 prostate, more than 100 µM; in the assay on HCT-116 colon it was more than 100 µM. Further, the TGI is 40.5 µM in the assay on KM12 colon, more than 100 µM in the assay on HCT-15 colon, 69.9 µM with SR leukemia and more than 100 µM with U251 CNS.

On to `CCOP(=O)(OCC)C(C)(C)OC(=O)NC#N`, for which the TGI with EKVX NSCLC, in the assay on SF-295 CNS, in the assay with CCRF-CEM leukemia, with OVCAR-3 ovarian, with PC-3 prostate and in the assay on HCT-116 colon was more than 100 µM each time. Moreover, the TGI with KM12 colon, in the assay on HCT-15 colon, in the assay with SR leukemia and in the assay on U251 CNS was more than 100 µM each time.

On to `CC(/C=N/NC1=NCCCN1)=N\NC1=NCCCN1`, for which the TGI in the assay with EKVX NSCLC, in the assay with SF-295 CNS, in the assay with CCRF-CEM leukemia, with OVCAR-3 ovarian, with PC-3 prostate and in the assay on HCT-116 colon was more than 100 µM in each case. The TGI in the assay with KM12 colon, in the assay with HCT-15 colon, with SR leukemia and in the assay on U251 CNS was more than 100 µM in each case.

In the case of `CC1(C)CC[C@]2(C(=O)O)[C@H](O)C[C@]3(C)C(=CC[C@@H]4[C@@]5(C)CC[C@H](OC6OC(C(=O)O)C(O)C(O)C6O)C(C)(C)[C@@H]5CC[C@]43C)[C@@H]2C1` (stereo not given in full), the TGI in the assay with EKVX NSCLC, with SF-295 CNS, with CCRF-CEM leukemia, in the assay with OVCAR-3 ovarian, with PC-3 prostate and with HCT-116 colon was more than 100 µM in each case. Further, the TGI is more than 100 µM in the assay on KM12 colon, more than 100 µM with HCT-15 colon, 46.7 µM in the assay with SR leukemia and more than 100 µM in the assay on U251 CNS.

Turning to `COc1ccccc1NS(=O)(=O)c1ccc2ncn(NS(=O)(=O)c3ccc(Cl)cc3)c(=O)c2c1`, the TGI with EKVX NSCLC, in the assay with SF-295 CNS, in the assay on CCRF-CEM leukemia, in the assay on OVCAR-3 ovarian, with PC-3 prostate and in the assay on HCT-116 colon was more than 100 µM in each case. The TGI with KM12 colon, in the assay on HCT-15 colon, in the assay with SR leukemia and in the assay with U251 CNS was more than 100 µM in each case.

For `CC1(C)C2CCC(N)(C2)C1O` (stereo not given), the TGI with EKVX NSCLC, in the assay on SF-295 CNS, in the assay with CCRF-CEM leukemia, in the assay on OVCAR-3 ovarian, with PC-3 prostate and with HCT-116 colon was more than 100 µM in each case. The TGI in the assay on KM12 colon, in the assay on HCT-15 colon, with SR leukemia and with U251 CNS was more than 100 µM throughout.

For the compound `CC1(C)CC2C(C1=O)C1(C)CCCC2(C)C1=O` (stereo not given), the TGI in the assay on EKVX NSCLC, in the assay on SF-295 CNS, with CCRF-CEM leukemia, in the assay on OVCAR-3 ovarian, in the assay on PC-3 prostate and with HCT-116 colon was more than 100 µM each time. Moreover, the TGI in the assay with KM12 colon, with HCT-15 colon, with SR leukemia and with U251 CNS was more than 100 µM each time.

With `N=C(c1cccs1)C1(N2CCCCC2)CCCCC1`, the TGI in the assay on EKVX NSCLC is 41.3 µM; in the assay on SF-295 CNS, 39.7 µM; in the assay with CCRF-CEM leukemia, 36.2 µM; in the assay on OVCAR-3 ovarian it was 30.3 µM; with PC-3 prostate, 81.8 µM; with HCT-116 colon, more than 100 µM. Also, the TGI in the assay on KM12 colon is 34.6 µM; in the assay with HCT-15 colon it was 29.7 µM; in the assay with SR leukemia, 37.1 µM; in the assay with U251 CNS it was 30 µM.

Turning to `CCCCCCCCCCCCCCCCP(=O)([O-])OCC[N+](C)(C)C`, the TGI was found to be 39.1 µM in the assay on EKVX NSCLC; 25.8 µM in the assay on SF-295 CNS; 24.7 µM in the assay with CCRF-CEM leukemia; 31.6 µM with OVCAR-3 ovarian; 8.66 µM in the assay on PC-3 prostate; 28 µM in the assay with HCT-116 colon. In addition, the TGI is 9.33 µM in the assay with KM12 colon, 16.7 µM in the assay on HCT-15 colon, 29.4 µM in the assay on SR leukemia and 31.2 µM in the assay with U251 CNS.

Take `C=CC(Br)(CBr)CCC(Br)C(C)C` (stereo not given): the TGI stood at 32.3 µM in the assay with EKVX NSCLC; 8.44 µM in the assay with SF-295 CNS; 3.46 µM with CCRF-CEM leukemia; 8.9 µM with OVCAR-3 ovarian; 19.5 µM in the assay with PC-3 prostate; 14.3 µM with HCT-116 colon. Further, the TGI in the assay with KM12 colon was found to be 4.83 µM; in the assay on HCT-15 colon, 17.9 µM; in the assay with SR leukemia, 3.99 µM; with U251 CNS, 12.6 µM.

On to `CN1C(=O)N(C)C2(CCN(CCCCCCF)CC2)C1=O`, for which the TGI in the assay on EKVX NSCLC, in the assay with SF-295 CNS, with CCRF-CEM leukemia, with OVCAR-3 ovarian, in the assay with PC-3 prostate and with HCT-116 colon was more than 100 µM in each case. Also, the TGI in the assay with KM12 colon, with HCT-15 colon, in the assay on SR leukemia and with U251 CNS was more than 100 µM in each case.

`C#CCCCC(=O)N(C(=O)CS(=O)CC)c1ccccc1` (stereo not given): the TGI with EKVX NSCLC, in the assay on SF-295 CNS, in the assay on CCRF-CEM leukemia, in the assay with OVCAR-3 ovarian, in the assay on PC-3 prostate and in the assay with HCT-116 colon was more than 100 µM each time. The TGI with KM12 colon, in the assay with HCT-15 colon, with SR leukemia and in the assay with U251 CNS was more than 100 µM each time.

Consider `COc1cccc(-c2cc(=O)c3cc(Cl)cnc3[nH]2)c1`, for which the TGI in the assay on EKVX NSCLC was more than 100 µM; in the assay on SF-295 CNS, 13 µM; in the assay with CCRF-CEM leukemia, more than 100 µM; in the assay with OVCAR-3 ovarian it was more than 43 µM; in the assay on PC-3 prostate, more than 100 µM; in the assay with HCT-116 colon it was 10.6 µM. The TGI came to 44.2 µM in the assay with KM12 colon, 31.9 µM with HCT-15 colon, 20.4 µM with SR leukemia and 23.5 µM in the assay on U251 CNS.

Turning to `O=C1c2cc([N+](=O)[O-])sc2C(=O)c2ccsc21`, the TGI with EKVX NSCLC is 3.01 µM; in the assay with SF-295 CNS, 0.993 µM; with CCRF-CEM leukemia, 0.227 µM; with OVCAR-3 ovarian, 0.209 µM; in the assay with PC-3 prostate, 1.8 µM; with HCT-116 colon, 0.816 µM. Besides, the TGI in the assay on KM12 colon was 1.77 µM; in the assay on HCT-15 colon it was 0.815 µM; with SR leukemia, less than 0.0235 µM; with U251 CNS, 0.373 µM.

Regarding `C[N+](C)([O-])CCCNc1ccnc2cccc([N+](=O)[O-])c12`, the TGI with EKVX NSCLC is more than 100 µM; with SF-295 CNS, more than 100 µM; with CCRF-CEM leukemia, more than 100 µM; in the assay on OVCAR-3 ovarian, 44.9 µM; in the assay with PC-3 prostate, more than 100 µM; in the assay on HCT-116 colon it was more than 100 µM. Also, the TGI in the assay with KM12 colon was more than 100 µM; with HCT-15 colon it was 61.6 µM; with SR leukemia, more than 100 µM; with U251 CNS, more than 100 µM.

The term TGI denotes the concentration giving total growth inhibition.
